Data as given in ChEMBL document CHEMBL1142026, “Isoindolinone-based inhibitors of the MDM2-p53 protein-protein interaction” (Bioorg Med Chem Lett, 2005).

These compounds were tested against Tumour suppressor p53/oncoprotein Mdm2 (Homo sapiens, UniProt P04637+Q00987) (assay: (§1) Inhibitory concentration against MDM2-p53 interaction in SJSA human sarcoma cells). Conditions: sjsa-1.
Assay type: cell-based, SJSA-1

Tumour suppressor p53/oncoprotein Mdm2 (Homo sapiens, UniProt P04637+Q00987), sequence (P04637 whole entry): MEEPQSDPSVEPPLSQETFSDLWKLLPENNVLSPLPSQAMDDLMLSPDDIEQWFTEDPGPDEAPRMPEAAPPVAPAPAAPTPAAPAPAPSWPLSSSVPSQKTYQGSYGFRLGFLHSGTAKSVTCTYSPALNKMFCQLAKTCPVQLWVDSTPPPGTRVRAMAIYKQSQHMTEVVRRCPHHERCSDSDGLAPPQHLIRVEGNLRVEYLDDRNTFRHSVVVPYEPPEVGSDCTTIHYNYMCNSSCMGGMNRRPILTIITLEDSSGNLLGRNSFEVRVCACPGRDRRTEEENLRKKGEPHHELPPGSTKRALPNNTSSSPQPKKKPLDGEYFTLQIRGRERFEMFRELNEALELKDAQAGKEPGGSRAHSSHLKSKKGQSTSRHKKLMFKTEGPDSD
Tumour suppressor p53/oncoprotein Mdm2 (Homo sapiens, UniProt P04637+Q00987), sequence (Q00987 whole entry): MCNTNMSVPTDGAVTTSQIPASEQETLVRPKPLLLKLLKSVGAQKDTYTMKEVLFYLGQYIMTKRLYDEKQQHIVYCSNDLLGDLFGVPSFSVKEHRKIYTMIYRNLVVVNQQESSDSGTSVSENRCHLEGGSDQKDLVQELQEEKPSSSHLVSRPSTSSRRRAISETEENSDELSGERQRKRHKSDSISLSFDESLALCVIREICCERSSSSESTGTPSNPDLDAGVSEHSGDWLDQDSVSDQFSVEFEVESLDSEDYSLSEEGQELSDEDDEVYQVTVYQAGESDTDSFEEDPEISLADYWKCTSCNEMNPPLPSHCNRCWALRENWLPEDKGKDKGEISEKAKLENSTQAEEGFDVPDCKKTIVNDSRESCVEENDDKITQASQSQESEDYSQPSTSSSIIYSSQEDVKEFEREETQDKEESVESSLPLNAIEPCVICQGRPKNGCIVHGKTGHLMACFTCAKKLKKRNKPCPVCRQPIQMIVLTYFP

SMILES	IC50
CC(C)(C)c1ccc(COC2(c3ccccc3)c3ccccc3C(=O)N2Cc2ccccc2)cc1 (stereo in doubt; 2d)	92 µM

The compounds below were run against Tumour suppressor p53/oncoprotein Mdm2 (Homo sapiens, UniProt Q00987) (assay: as §1). Conditions: not given.
Assay type: cell-based, SJSA-1

Tumour suppressor p53/oncoprotein Mdm2 (Homo sapiens, UniProt Q00987), sequence (P04637 whole entry): as the sequence (P04637 whole entry) above
Tumour suppressor p53/oncoprotein Mdm2 (Homo sapiens, UniProt Q00987), sequence (Q00987 whole entry): as the sequence (Q00987 whole entry) above

SMILES	IC50
COc1cc(COC2(c3ccccc3)c3ccccc3C(=O)N2Cc2ccccc2)cc(OC)c1O (centres undefined)	17.9 µM
CCCN1C(=O)c2ccccc2C1(OCCCO)c1ccccc1 (centres undefined)	> 500 µM
CCCN1C(=O)c2ccccc2C1(OCCc1ccccn1)c1ccccc1 (centres undefined)	100 µM
COc1ccc(C(O)CNC2(c3ccccc3)c3ccccc3C(=O)N2Cc2ccccc2)cc1 (centres undefined)	70 µM
COc1cc(COC2(c3ccc(Cl)cc3)c3ccccc3C(=O)N2CCNC(C)=O)cc(OC)c1O (centres undefined)	76 µM
CCCN1C(=O)c2ccccc2C1(NC(=O)c1ccc(C(C)(C)C)cc1)c1ccc(OCOCC[Si](C)(C)C)cc1 (centres undefined)	27 µM
CCCOC1(c2ccccc2)c2ccccc2C(=O)N1Cc1ccccc1 (centres undefined)	~200 µM
CCCN1C(=O)c2ccccc2C1(OCc1ccc(C(C)(C)C)cc1)c1ccccc1 (centres undefined)	> 500 µM
CC(C)(C)c1ccc(COC2(c3ccc(Cl)cc3)c3ccccc3C(=O)N2Cc2ccccc2)cc1 (centres undefined)	99 µM
CCCNC1(c2ccccc2)c2ccccc2C(=O)N1Cc1ccccc1 (centres undefined)	~200 µM
COc1cc(COC2(c3ccc(Cl)cc3)c3ccccc3C(=O)N2Cc2ccccc2)cc(OC)c1O (centres undefined)	42 µM
CCCOC1(c2ccccc2)c2ccccc2C(=O)N1C(Cc1ccc(O)cc1)C(=O)OC (centres undefined)	90 µM
CC(=O)NCCN1C(=O)c2ccccc2C1(OCc1ccc(C(C)(C)C)cc1)c1ccccc1 (centres undefined)	14 µM
CCCOC1(c2ccccc2)c2ccccc2C(=O)N1CCC (centres undefined)	~200 µM
O=C1c2ccccc2C(OCCCO)(c2ccc(Cl)cc2)N1Cc1ccccc1 (centres undefined)	15.9 µM
CCCN1C(=O)c2ccccc2C1(NC(=O)c1ccccc1)c1ccc(C(C)(C)C)cc1 (centres undefined)	66 µM
CCCN1C(=O)c2ccccc2C1(OCc1cc(OC)c(O)c(OC)c1)c1ccc(Cl)cc1 (centres undefined)	5.3 µM
O=C1c2ccccc2C(OCCc2ccccn2)(c2ccc(Cl)cc2)N1Cc1ccccc1 (centres undefined)	26.2 µM
CC(=O)NCCN1C(=O)c2ccccc2C1(OCc1ccc(C(C)(C)C)cc1)c1ccc(Cl)cc1 (centres undefined)	91.4 µM
CCCN1C(=O)c2ccccc2C1(OCc1cc(OC)c(O)c(OC)c1)c1ccccc1 (centres undefined)	82 µM
CCCN1C(=O)c2ccccc2C1(OCCc1ccccn1)c1ccc(Cl)cc1 (centres undefined)	57 µM
CCCN1C(=O)c2ccccc2C1(OCCCO)c1ccc(Cl)cc1 (centres undefined)	16.4 µM
CC(C)(C)c1ccc(COC2(c3ccccc3)c3ccccc3C(=O)N2Cc2ccccc2)cc1 (stereo in doubt; 5)	92 µM
